Experiments:
Format in all cases: functional
Conditions in all cases: route intraperitoneal
Mus musculus [1] = test: Hypoglycemic activity in diabetic KK-Ay mouse at 5 mg/kg, ip assessed as blood glucose level per 100 mL blood after 4 hrs
Mus musculus [2] = test: Hypoglycemic activity in normal ddY mouse at 5 mg/kg, ip assessed as blood glucose level per 100 mL blood after 4 hrs
Mus musculus [3] = test: Hypoglycemic activity in normal ddY mouse at 5 mg/kg, ip assessed as blood glucose level per 100 mL blood after 7 hrs
Mus musculus [4] = test: Hypoglycemic activity in diabetic KK-Ay mouse at 5 mg/kg, ip assessed as blood glucose level per 100 mL blood after 7 hrs
Mus musculus [5] = test: Hypoglycemic activity in diabetic KK-Ay mouse at 50 mg/kg, ip assessed as blood glucose level per 100 mL blood after 4 hrs
Mus musculus [6] = test: Hypoglycemic activity in normal ddY mouse at 50 mg/kg, ip assessed as blood glucose level per 100 mL blood after 4 hrs
Mus musculus [7] = test: Hypoglycemic activity in diabetic KK-Ay mouse at 50 mg/kg, ip assessed as blood glucose level per 100 mL blood after 7 hrs
Mus musculus [8] = test: Hypoglycemic activity in normal ddY mouse at 50 mg/kg, ip assessed as blood glucose level per 100 mL blood after 7 hrs
Mus musculus [9] = test: Hypoglycemic activity in normal ddY mouse at 1 mg/kg, ip assessed as blood glucose level per 100 mL blood after 4 hrs
Mus musculus [10] = test: Hypoglycemic activity in diabetic KK-Ay mouse at 1 mg/kg, ip assessed as blood glucose level per 100 mL blood after 7 hrs
Mus musculus [11] = test: Hypoglycemic activity in diabetic KK-Ay mouse at 1 mg/kg, ip assessed as blood glucose level per 100 mL blood after 4 hrs
Mus musculus [12] = test: Hypoglycemic activity in normal ddY mouse at 1 mg/kg, ip assessed as blood glucose level per 100 mL blood after 7 hrs

Which Activity (Mus musculus [1]) does the source give for COc1ccc(/C=C/C(=O)O[C@@H]2[C@H](O)[C@@H](O[C@@H]3O[C@@H](C)[C@H](O[C@@H]4OC[C@@H](O[C@@H]5O[C@H](CO)[C@H](O)[C@H](O)[C@H]5O)[C@H](O)[C@H]4O)[C@@H](O)[C@H]3O)[C@H](OC(=O)[C@]34CCC(C)(C)C[C@@H]3C3=CC[C@@H]5[C@@]6(C)C[C@H](O[C@@H]7O[C@H](CO)[C@@H](O)[C@H](O)[C@H]7O)[C@H](O)[C@@](C)(C(=O)O)[C@@H]6CC[C@@]5(C)[C@]3(CO)CC4)O[C@@H]2C)cc1 [DESMETHOXYSENEGIN II] here?
Its Activity is 306 mg/dL.

What about the Activity (Mus musculus [2]) of the same compound?
The Activity was 199 mg/dL.

And the Activity (Mus musculus [3])?
The Activity was 195 mg/dL.

And the Activity (Mus musculus [4])?
The Activity was 325 mg/dL.

CCCCNC(=O)NS(=O)(=O)c1ccc(C)cc1 [TOLBUTAMIDE] was tested. Which Activity (Mus musculus [5]) did it give?
The Activity was 495 mg.

What about the Activity (Mus musculus [6]) of the same compound?
The Activity was 160 mg.

What about the Activity (Mus musculus [7]) of the same compound?
The Activity was 370 mg.

And the Activity (Mus musculus [8])?
The Activity was 170 mg.

For COc1cc(/C=C/C(=O)OC[C@@]2(O[C@H]3O[C@H](COC(C)=O)[C@@H](OC(=O)/C=C/c4ccc(O)c(OC)c4)[C@H](O[C@@H]4O[C@H](COC(C)=O)[C@@H](O[C@@H]5O[C@H](CO)[C@@H](O)[C@H](O)[C@H]5O)[C@H](O)[C@H]4O)[C@H]3O[C@@H]3O[C@H](CO)[C@@H](O)[C@H](O)[C@H]3O)O[C@H](CO)[C@@H](O)[C@@H]2OC(=O)c2ccccc2)ccc1O [SENEGOSE A], which Activity (Mus musculus [1]) is on record?
The Activity was 401 mg/dL.

And the Activity (Mus musculus [2])?
Its Activity is 197 mg/dL.

What about the Activity (Mus musculus [3]) of the same compound?
The Activity was 199 mg/dL.

And the Activity (Mus musculus [4])?
The Activity was 368 mg/dL.

For COc1ccc(/C=C/C(=O)O[C@@H]2[C@H](O[C@@H]3O[C@@H](C)[C@H](O)[C@@H](O)[C@H]3O)[C@@H](O[C@@H]3O[C@@H](C)[C@H](O[C@@H]4OC[C@@H](O[C@@H]5O[C@H](CO)[C@H](O)[C@H](O)[C@H]5O)[C@H](O)[C@H]4O)[C@@H](O)[C@H]3O)[C@H](OC(=O)[C@]34CCC(C)(C)C[C@@H]3C3=CC[C@@H]5[C@@]6(C)C[C@H](O[C@@H]7O[C@H](CO)[C@@H](O)[C@H](O)[C@H]7O)[C@H](O)[C@@](C)(C(=O)O)[C@@H]6CC[C@@]5(C)[C@]3(CO)CC4)O[C@@H]2C)cc1 [SENEGIN III], which Activity (Mus musculus [9]) is on record?
Its Activity is 167 mg.

What about the Activity (Mus musculus [10]) of the same compound?
The Activity was 210 mg.

What about the Activity (Mus musculus [11]) of the same compound?
The Activity was 195 mg.

And the Activity (Mus musculus [1])?
The Activity was 204 mg/dL.

And the Activity (Mus musculus [12])?
The Activity was 172 mg.

What about the Activity (Mus musculus [2]) of the same compound?
Its Activity is 151 mg/dL.

What about the Activity (Mus musculus [3]) of the same compound?
Its Activity is 160 mg/dL.

And the Activity (Mus musculus [4])?
Its Activity is 146 mg/dL.

How did the Activity (Mus musculus [9]) turn out when COc1ccc(/C=C/C(=O)O[C@@H]2[C@H](O)[C@@H](O[C@@H]3O[C@@H](C)[C@H](O[C@@H]4OC[C@@H](O[C@@H]5O[C@H](CO)[C@H](O)[C@H](O)[C@H]5O)[C@H](O)[C@H]4O)[C@@H](O)[C@H]3O)[C@H](OC(=O)[C@]34CCC(C)(C)C[C@@H]3C3=CCC5[C@@]6(C)C[C@H](O[C@@H]7O[C@H](CO)[C@@H](O)[C@H](O)[C@H]7O)[C@H](O)[C@@](C)(C(=O)O)[C@@H]6CC[C@@]5(C)[C@]3(CO)CC4)O[C@@H]2C)cc1OC (stereo partly specified) [SENEGIN II] was run?
The Activity was 139 mg.

And the Activity (Mus musculus [10])?
The Activity was 305 mg.

And the Activity (Mus musculus [11])?
The Activity was 226 mg.

And the Activity (Mus musculus [1])?
The Activity was 217 mg/dL.

And the Activity (Mus musculus [12])?
The Activity was 149 mg.

And the Activity (Mus musculus [2])?
The Activity was 137 mg/dL.

And the Activity (Mus musculus [3])?
The Activity was 140 mg/dL.

And the Activity (Mus musculus [4])?
The Activity was 182 mg/dL.

Which Activity (Mus musculus [9]) does the source give for COc1ccc(/C=C/C(=O)O[C@@H]2[C@H](O[C@@H]3O[C@@H](C)[C@H](O)[C@@H](O)[C@H]3O)[C@@H](O[C@@H]3O[C@@H](C)[C@H](O[C@@H]4OC[C@@H](O[C@@H]5O[C@H](CO)[C@H](O)[C@H](O)[C@H]5O)[C@H](O)[C@H]4O)[C@@H](O[C@H]4OC[C@](O)(CO)[C@H]4O)[C@H]3O)[C@H](OC(=O)[C@]34CCC(C)(C)C[C@@H]3C3=CC[C@@H]5[C@@]6(C)C[C@H](O[C@@H]7O[C@H](CO)[C@@H](O)[C@H](O)[C@H]7O)[C@H](O)[C@@](C)(C(=O)O)[C@@H]6CC[C@@]5(C)[C@]3(CO)CC4)O[C@@H]2C)cc1 [SENEGIN IV] here?
The Activity was 177 mg.

And the Activity (Mus musculus [10])?
Its Activity is 276 mg.

And the Activity (Mus musculus [11])?
Its Activity is 207 mg.

And the Activity (Mus musculus [1])?
The Activity was 276 mg/dL.

What about the Activity (Mus musculus [12]) of the same compound?
Its Activity is 171 mg.

What about the Activity (Mus musculus [2]) of the same compound?
Its Activity is 187 mg/dL.

And the Activity (Mus musculus [3])?
Its Activity is 169 mg/dL.

And the Activity (Mus musculus [4])?
Its Activity is 388 mg/dL.

— ChEMBL document CHEMBL1145691, “Hypoglycemic activity of some triterpenoid glycosides” (1997)
